From patent US6605639B1, “Ligands of nuclear receptor” (Nuclear Receptor Research, Ltd., priority 1998, dated 2003) come the findings set out here.

Assay [1] addresses T1, RAR (Homo sapiens, UniProt P10276).
T1 construct: expressed in transfected cells; host or cells: COS-1 cells
T1 sequence (P10276 1-462): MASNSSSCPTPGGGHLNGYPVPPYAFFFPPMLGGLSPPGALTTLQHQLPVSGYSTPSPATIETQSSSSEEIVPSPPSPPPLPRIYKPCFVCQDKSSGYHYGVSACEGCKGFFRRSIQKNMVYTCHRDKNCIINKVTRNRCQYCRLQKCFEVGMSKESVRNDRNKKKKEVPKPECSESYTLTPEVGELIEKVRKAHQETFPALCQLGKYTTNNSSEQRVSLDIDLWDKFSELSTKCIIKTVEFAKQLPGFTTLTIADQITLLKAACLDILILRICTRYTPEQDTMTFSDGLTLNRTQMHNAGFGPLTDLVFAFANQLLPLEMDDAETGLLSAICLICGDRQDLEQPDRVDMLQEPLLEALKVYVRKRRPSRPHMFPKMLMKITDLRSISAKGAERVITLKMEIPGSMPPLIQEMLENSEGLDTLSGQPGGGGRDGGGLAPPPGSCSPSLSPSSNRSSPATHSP
Nature of the assay: RAR reporter gene (luciferase) transfer assay in COS-1 cells. Format: cell-based. Conditions: control lot = 1. From the text:
Each value means the degree of increase in the luciferase activity, which is expressed by referring the luciferase activity in the control lot as to 1, caused by the addition of the corresponding compound.
As a substitute for a plasmid containing a luciferase gene under the regulation in expression by RXR response element (pRXRL:RXRE-SV40 luciferase), and the RXRα expression plasmid (pRXRα); a plasmid containing a luciferase gene under the regulation in expression by RXR response element (pRARL:RASE-SV40 luciferase), and a […] (pRARα) were transferred into COS-1 cells. Transfectants with these plasmids and the compound of the present invention (concentration: 10^−4 to 10^−7 M) were added to the culture.
After sucking off the medium from the Petri dish, […] of a cultured cell lysing solution (25 mM Tris phosphate buffer (pH 7.8), 2 mM 1,2-diaminocyclohexane-N, N,N′,N′-tetraacetate, 10% glycerol, 1% Triton X-100) was added and the cells were peeled off with a rubber policeman and collected. After completely disrupting the cells by freezing and melting, the cells were centrifuged at 4° C. (15,000 rpm, 2 min) and the supernatant thus obtained was employed as a sample for measurement. To 20 ml of the supernatant, 100 ml of a luciferase substrate solution (2.14 mg of Co-A, 100 ml of 470 mM D-Luciferin, 200 ml of 530 mM ATP, 2 ml of DTT-Tricine buffer (pH 7.8)) was added and the fluorescence intensity was measured with a luminometer (ATTO Luminosensor AB-2000). To measure the β-galactosidase for determining the gene transfer efficiency, using a Luminescent β-galactosidase detection kit II (Clontech), fluorescence intensity was measured by a luminometer.
(Reporter assays use an easily measured gene product as a stand-in for the process of interest.)

The subject of assay [2] is cholesterol-7α hydroxylase. Nature of the assay: Formation of 7α-hydroxycholesterol in hepatic microsome of treated rats. The class given is in vivo, rat. Conditions: for 7-α-Hydorxycholesterol / 7-α-Hydorxycholesterol (conversion rate): 7 times, 1% cholesterol feed, average of 5 rats. As to the method:
To examine the function mechanism of the compounds of the present invention for promoting bile acid excretion, an experiment was carried out to study the effect on a nuclear receptor LXR. It is assumed that LXR, which is a special nuclear receptor in the liver, might be a cholesterol sensor acting with 22-hydroxycholesterol as a ligand (Bethany A. Janowski at al., Nature 383:728-731, 1996). When cholesterol is accumulated in excess in a respective organ, LXR binds to the ligand, forms a heterodimer with RXR, and then binds to the hormone response element. This binding serves as a signal for promoting the oxidation of cholesterol into bile acid to be excreted from the body, thereby reducing deposited cholesterol. Accordingly, the liver is the organ which accumulates cholesterol in the largest amount and, at the same time, releases cholesterol as bile acid in the largest amount. It is estimated that the ability of the compounds of the present invention to promote the excretion of bile acid into feces would be established as follows. In the liver, RXR and LXR bind to the corresponding ligands, subsequently form a heterodimer with each other, and thus promote the expression of colesterol-7α-hydroxylase which is the rate-limiting enzyme in the biosynthesis pathway of bile acid. That is to say, it is estimated that the compounds of the present invention, ligands of RXR, would promote the transcription of the gene of colesterol-7α-hydroxylase (i.e., the enzyme of the rate state in the bile acid biosynthesis in the liver) and thus enhance the expression of colesterol-7α-hydroxylase. […] Accordingly, it can be concluded that the difference between the effects of clofibrate and the compounds of the present invention on cholesterol metabolism resides in that the former is a ligand of PPARα which is not capable of forming a heterodimer with LXR while the latter enhance the transcription of cholesterol oxidase gene RXR ligand-dependently and thus promote the excretion as bile acid from the body. These findings can be regarded as one major aspect of the present invention.
The experiment was carried out as follows. For each compound, 10 male Sprague Dawley rats weighing about 200 g were divided into 2 groups at random and fed for a week with a powdery rat feed (CE-2; Nippon Crea Co., Ltd.) containing 1% of cholesterol and drinking water ad libitum. The compounds of the present invention were suspended in a 2% acacia solution and orally administered by force once a day 7 times continuously in a dose of 5 mg/kg (Compound-1 and Compound-26) or 20 mg/kg (Compound-6 and Compound-14). In the early morning of the day 8, each animal was killed by blood loss. After refluxing with physiological saline, the liver was taken out immediately. Then 4 times as much 250 mM sucrose solution (containing 75 mM of nicotinamide, 1 mM of EDTA and 0.5 mM of MgCl2) was added to the liver and the mixture was ground with the use of a Teflon homogenizer. Then the liquid ground matter was centrifuged at 9500G for 15 minutes at 4° C. and the mitochondria-free supernatant thus obtained was further centrifuged at 105000G for 60 minutes to thereby separate a microsome fraction. By using the microsome thus separated, the yield of […] was measured in a conventional manner and the conversion rate was calculated.

“3-[5-[l(R),2(S),6(S)-trimethyl-3-oxocylohexyl]-3-methyl-2,4-pentadienyl]-2,4-dihydroxy-5-chloro-6-methylbenzaldehyde [Compound-1]”: the “degree of increase in the luciferase activity, RAR vector” value (“degree of increase” for short) in assay [1] (10^−6 M) came to 30. In addition, in assay [2] (5 mg/kg oral once a day), the 7-α-Hydorxycholesterol came to 3.80 nM/hr/mg protein and the “7-α-Hydorxycholesterol (conversion rate)” value worked out at 5.51%.
For `COc1c(Cl)c(C)c(C=O)c(O)c1C/C=C(C)/C=C/[C@@]1(C)[C@H](C)CCC(=O)[C@@H]1C` [Compound-6, 4-O-methylASC], the “degree of increase” value in assay [1] (5 × 10^−6 M) worked out at 35. For the same compound, in assay [2] (20 mg/kg oral once a day), the 7-α-Hydorxycholesterol amounted to 3.61 nM/hr/mg protein and the “7-α-Hydorxycholesterol (conversion rate)” value is listed as 5.30%. Further, the “enzymatic activity and yield of colesterol-7α-hydroxylase per unit protein weight” value in assay [2] (ground liver of orally treated rats) is on record as “elevated dose-dependently”.
For the compound `CC(/C=C/[C@@]1(C)[C@H](C)CCC(=O)[C@@H]1C)=C\Cc1c(O)c(C=O)c(C)c(Cl)c1OCC(=O)O` [Compound-14, 4-O-carboxymethylASC], the “degree of increase” value in assay [1] (10^−5 M) stood at 38. In assay [2] (20 mg/kg oral once a day), the 7-α-Hydorxycholesterol came to 4.47 nM/hr/mg protein and the “7-α-Hydorxycholesterol (conversion rate)” value stood at 7.06%.
With `CC(/C=C/C1(C)C(C)C=CC(=O)C1C)=C\Cc1c(O)c(Cl)c(C)c(C=O)c1O` (stereo not shown) [Compound-26], in assay [1] (4 × 10^−7 M), the “degree of increase” value was found to be 33. In assay [2] (5 mg/kg oral once a day), the 7-α-Hydorxycholesterol worked out at 3.31 nM/hr/mg protein and the “7-α-Hydorxycholesterol (conversion rate)” value is 4.00%.
